Measurements taken from patent publication US20220242870A1, “HETEROCYCLE-FUSED PYRIMIDINE DERIVATIVE AND USE THEREOF” (VORONOI Inc., priority 2019, published 2022).

Assays:
Assay in all cases: scanMAX kinase assay panel
Type in all cases: binding
YSK4 = target: T1, YSK4 (Homo sapiens, UniProt Q56UN5); settings: read-out: control percentage (% control)
T1 construct: purchased DiscoverX
Procedure: (§1) The activities of the compounds according to the present invention to more diverse enzymes were evaluated. Specifically, it was decided that the enzyme selectivity of Example 74 selected from the compounds of Examples 1 to 129 was measured at the request of DiscoverX, and the experiment was conducted using a scanMAX™ kinase assay panel. At this time, as a drug to treat the enzyme, a solution prepared by dissolving in DMSO at a concentration of 1 μM was used, and the control percentage (% control) was determined by the method of Equation 1 below, and the results were shown in Table 2 below.
(§2) In Equation above, the positive control and negative control mean compounds showing control percentages of 0% and 100% as DMSO, respectively.

MAP3K2 = target: T2, MAP3K2 (Homo sapiens, UniProt Q9Y2U5); settings: read-out: control percentage (% control)
T2 construct: purchased DiscoverX scanMAX kinase assay panel
Procedure: as §1, §2

TNIK = target: T3, TNIK (Homo sapiens, UniProt Q9UKE5); settings: read-out: control percentage (% control)
T3 construct: purchased DiscoverX
Procedure: as §1, §2

ROCK1 = target: T4, ROCK1 (Homo sapiens, UniProt Q13464); settings: read-out: control percentage (% control)
T4 construct: purchased DiscoverX scanMAX kinase assay panel
Procedure: as §1, §2

CDKL2 = target: T5, CDKL2 (Homo sapiens, UniProt Q92772); settings: read-out: control percentage (% control)
T5 construct: purchased DiscoverX (scanMAX panel, contract assay)
Procedure: as §1, §2

RIOK1 = target: T6, RIOK1 (Homo sapiens, UniProt Q9BRS2); settings: read-out: control percentage (% control)
T6 construct: purchased DiscoverX scanMAX kinase assay panel
T6 sequence (Q9BRS2 whole entry): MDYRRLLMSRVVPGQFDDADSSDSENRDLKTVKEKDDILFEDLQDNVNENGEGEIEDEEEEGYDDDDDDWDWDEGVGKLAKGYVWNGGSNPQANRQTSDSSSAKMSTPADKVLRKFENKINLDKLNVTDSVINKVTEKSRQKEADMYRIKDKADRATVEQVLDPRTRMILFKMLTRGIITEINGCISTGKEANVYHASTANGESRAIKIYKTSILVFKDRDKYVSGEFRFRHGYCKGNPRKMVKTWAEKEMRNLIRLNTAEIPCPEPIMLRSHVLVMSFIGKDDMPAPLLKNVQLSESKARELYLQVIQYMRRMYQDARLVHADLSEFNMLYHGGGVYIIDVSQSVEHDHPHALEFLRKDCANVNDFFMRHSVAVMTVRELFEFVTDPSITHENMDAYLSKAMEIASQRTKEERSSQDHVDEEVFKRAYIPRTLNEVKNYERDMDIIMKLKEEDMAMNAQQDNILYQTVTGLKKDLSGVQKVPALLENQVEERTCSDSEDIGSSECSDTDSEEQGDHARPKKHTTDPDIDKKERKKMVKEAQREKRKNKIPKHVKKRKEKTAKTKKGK
Procedure: as §1, §2

MLK1 = target: T7, MLK1 (Homo sapiens, UniProt P80192); settings: read-out: control percentage (% control)
T7 construct: purchased DiscoverX scanMAX kinase assay panel
Procedure: as §1, §2

SLK = target: T8, SLK (Homo sapiens, UniProt Q9H2G2); settings: read-out: control percentage (% control)
T8 construct: purchased DiscoverX
Procedure: as §1, §2

JNK1 = target: T9, JNK1 (Homo sapiens, UniProt P45983); settings: read-out: control percentage (% control)
T9 construct: purchased DiscoverX scanMAX kinase assay panel
Procedure: as §1, §2

CIT = target: T10, CIT (Homo sapiens, UniProt O14578); settings: read-out: control percentage (% control)
T10 construct: purchased DiscoverX (scanMAX panel, contract assay)
Procedure: as §1, §2

[1] = target: T11, ABL1(Q252H)-nonphosphorylated (Homo sapiens, UniProt P00519, Q252H); settings: read-out: control percentage (% control)
T11 construct: purchased DiscoverX (scanMAX panel, contract assay)
Procedure: as §1, §2

SRPK3 = target: T12, SRPK3 (Homo sapiens, UniProt Q9UPE1); settings: read-out: control percentage (% control)
T12 construct: purchased DiscoverX
T12 sequence (Q9UPE1 whole entry): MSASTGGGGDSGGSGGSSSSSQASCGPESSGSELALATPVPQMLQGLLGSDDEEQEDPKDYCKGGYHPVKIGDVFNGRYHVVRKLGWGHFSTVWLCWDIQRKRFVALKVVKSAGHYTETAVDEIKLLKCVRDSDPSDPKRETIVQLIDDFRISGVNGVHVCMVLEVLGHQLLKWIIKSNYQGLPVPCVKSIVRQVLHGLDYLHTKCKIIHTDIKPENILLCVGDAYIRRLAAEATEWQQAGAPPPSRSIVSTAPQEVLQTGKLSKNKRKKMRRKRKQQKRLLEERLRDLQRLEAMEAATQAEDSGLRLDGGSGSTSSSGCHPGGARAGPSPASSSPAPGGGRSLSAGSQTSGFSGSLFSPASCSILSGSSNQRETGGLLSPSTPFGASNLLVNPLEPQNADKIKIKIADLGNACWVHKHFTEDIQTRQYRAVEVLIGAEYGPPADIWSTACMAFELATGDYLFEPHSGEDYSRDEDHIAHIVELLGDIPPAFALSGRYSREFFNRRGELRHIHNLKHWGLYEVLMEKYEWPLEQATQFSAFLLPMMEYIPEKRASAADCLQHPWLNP
Procedure: as §1, §2

LRRK2 = target: T13, LRRK2 (Homo sapiens, UniProt Q5S007); settings: read-out: control percentage (% control)
T13 construct: purchased DiscoverX scanMAX kinase assay panel
Procedure: as §1, §2

CDK4 = target: T14, CDK4 (Homo sapiens, UniProt P11802); settings: read-out: control percentage (% control)
T14 construct: purchased DiscoverX (scanMAX panel, contract assay)
Procedure: as §1, §2

PIP5K2B = target: T15, PIP5K2B (Homo sapiens, UniProt P78356); settings: read-out: control percentage (% control)
T15 construct: purchased DiscoverX scanMAX kinase assay panel
T15 sequence (P78356 whole entry): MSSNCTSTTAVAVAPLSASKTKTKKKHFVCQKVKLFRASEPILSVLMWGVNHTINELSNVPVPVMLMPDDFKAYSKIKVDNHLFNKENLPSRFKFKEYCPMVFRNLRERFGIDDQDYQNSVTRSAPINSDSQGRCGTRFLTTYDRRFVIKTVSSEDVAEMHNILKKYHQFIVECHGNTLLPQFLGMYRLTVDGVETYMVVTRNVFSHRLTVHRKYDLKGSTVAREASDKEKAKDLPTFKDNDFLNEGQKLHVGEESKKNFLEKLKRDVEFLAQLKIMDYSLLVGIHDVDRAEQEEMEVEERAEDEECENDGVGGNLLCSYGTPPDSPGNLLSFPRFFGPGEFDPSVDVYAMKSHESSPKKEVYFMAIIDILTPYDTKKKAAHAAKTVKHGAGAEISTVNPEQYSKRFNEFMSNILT
Procedure: as §1, §2

FLT3(D835V) = target: T16, FLT3(D835V) (Homo sapiens, UniProt P36888, D835V); settings: read-out: control percentage (% control)
T16 construct: purchased DiscoverX scanMAX kinase assay panel
Procedure: as §1, §2

EGFR(T790M) = target: T17, EGFR(T790M) (Homo sapiens, UniProt P00533, T790M); settings: read-out: control percentage (% control)
T17 construct: purchased DiscoverX scanMAX kinase assay panel
Procedure: as §1, §2

MERTK = target: T18, MERTK (Homo sapiens, UniProt Q12866); settings: read-out: control percentage (% control)
T18 construct: purchased DiscoverX scanMAX kinase assay panel
Procedure: as §1, §2

[2] = target: T19, JAK1(JH2domain-pseudokinase) (Homo sapiens, UniProt P23458); settings: read-out: control percentage (% control)
T19 construct: JAK1(JH2domain-pseudokinase); purchased DiscoverX scanMAX kinase assay panel
Procedure: as §1, §2

[3] = target: T20, ABL1(T315I)-nonphosphorylated (Homo sapiens, UniProt P00519, T315I); settings: read-out: control percentage (% control)
T20 construct: purchased DiscoverX (scanMAX panel, contract assay)
Procedure: as §1, §2

VRK2 = target: T21, VRK2 (Homo sapiens, UniProt Q86Y07); settings: read-out: control percentage (% control)
T21 construct: purchased DiscoverX
Procedure: as §1, §2

AXL = target: T22, AXL (Homo sapiens, UniProt P30530); settings: read-out: control percentage (% control)
T22 construct: purchased DiscoverX (scanMAX panel, contract assay)
Procedure: as §1, §2

CDK7 = target: T23, CDK7 (Homo sapiens, UniProt P50613); settings: read-out: control percentage (% control)
T23 construct: purchased DiscoverX (scanMAX panel, contract assay)
T23 sequence (P50613 whole entry): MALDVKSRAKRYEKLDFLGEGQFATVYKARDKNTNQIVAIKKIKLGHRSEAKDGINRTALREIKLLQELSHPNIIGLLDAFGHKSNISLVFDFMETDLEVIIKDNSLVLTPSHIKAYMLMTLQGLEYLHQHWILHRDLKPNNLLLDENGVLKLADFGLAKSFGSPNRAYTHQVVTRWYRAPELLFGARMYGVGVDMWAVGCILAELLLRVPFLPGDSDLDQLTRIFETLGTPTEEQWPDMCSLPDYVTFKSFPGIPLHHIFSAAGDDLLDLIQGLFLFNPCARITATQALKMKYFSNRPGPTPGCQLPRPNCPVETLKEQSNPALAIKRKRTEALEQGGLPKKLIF
Procedure: as §1, §2

HPK1 = target: T24, HPK1 (Homo sapiens, UniProt Q92918); settings: read-out: control percentage (% control)
T24 construct: purchased DiscoverX scanMAX kinase assay panel
T24 sequence (Q92918 whole entry): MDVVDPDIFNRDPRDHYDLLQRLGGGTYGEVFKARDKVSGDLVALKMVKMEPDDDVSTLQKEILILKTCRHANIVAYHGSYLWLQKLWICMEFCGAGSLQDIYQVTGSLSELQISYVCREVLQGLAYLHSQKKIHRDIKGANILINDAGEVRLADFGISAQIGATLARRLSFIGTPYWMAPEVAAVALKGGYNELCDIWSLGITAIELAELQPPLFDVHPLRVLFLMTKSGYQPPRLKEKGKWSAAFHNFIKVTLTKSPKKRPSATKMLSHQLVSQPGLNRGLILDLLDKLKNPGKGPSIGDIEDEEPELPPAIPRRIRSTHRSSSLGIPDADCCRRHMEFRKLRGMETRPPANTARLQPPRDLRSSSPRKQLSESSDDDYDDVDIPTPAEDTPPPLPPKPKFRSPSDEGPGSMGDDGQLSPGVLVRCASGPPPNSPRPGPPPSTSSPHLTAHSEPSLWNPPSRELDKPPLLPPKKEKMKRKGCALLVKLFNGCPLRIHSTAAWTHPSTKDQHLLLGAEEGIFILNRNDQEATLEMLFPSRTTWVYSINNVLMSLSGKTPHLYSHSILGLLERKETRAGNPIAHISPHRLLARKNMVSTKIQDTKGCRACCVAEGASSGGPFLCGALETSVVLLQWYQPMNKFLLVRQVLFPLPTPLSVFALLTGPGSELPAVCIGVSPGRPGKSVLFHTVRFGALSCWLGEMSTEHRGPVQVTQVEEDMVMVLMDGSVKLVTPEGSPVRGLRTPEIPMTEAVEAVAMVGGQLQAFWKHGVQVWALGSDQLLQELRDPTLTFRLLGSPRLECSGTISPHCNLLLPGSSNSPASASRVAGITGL
Procedure: as §1, §2

FLT3(ITD, F691L) = settings: 1 μM
Procedure: as §1, §2

MET = target: T25, MET (Homo sapiens, UniProt P08581); settings: read-out: control percentage (% control)
T25 construct: purchased DiscoverX scanMAX kinase assay panel
Procedure: as §1, §2

FLT3 = target: T26, FLT3 (Homo sapiens, UniProt P36888); settings: read-out: control percentage (% control)
T26 construct: purchased DiscoverX scanMAX kinase assay panel
Procedure: as §1, §2

[4] = target: T27, ABL1(H396P)-nonphosphorylated (Homo sapiens, UniProt P00519, H396P); settings: read-out: control percentage (% control)
T27 construct: purchased DiscoverX (scanMAX panel, contract assay)
Procedure: as §1, §2

DMPK = target: T28, DMPK (Homo sapiens, UniProt Q09013); settings: read-out: control percentage (% control)
T28 construct: purchased DiscoverX scanMAX kinase assay panel
Procedure: as §1, §2

LTK = target: T29, LTK (Homo sapiens, UniProt P29376); settings: read-out: control percentage (% control)
T29 construct: purchased DiscoverX scanMAX kinase assay panel
Procedure: as §1, §2

PIP5K2C = target: T30, PIP5K2C (Homo sapiens, UniProt Q8TBX8); settings: read-out: control percentage (% control)
T30 construct: purchased DiscoverX scanMAX kinase assay panel
Procedure: as §1, §2

MARK4 = target: T31, MARK4 (Homo sapiens, UniProt Q96L34); settings: read-out: control percentage (% control)
T31 construct: purchased DiscoverX scanMAX kinase assay panel
Procedure: as §1, §2

ROCK2 = target: T32, ROCK2 (Homo sapiens, UniProt O75116); settings: read-out: control percentage (% control)
T32 construct: purchased DiscoverX scanMAX kinase assay panel
Procedure: as §1, §2

FLT3(D835Y) = target: T33, FLT3(D835Y) (Homo sapiens, UniProt P36888, D835Y); settings: read-out: control percentage (% control)
T33 construct: purchased DiscoverX scanMAX kinase assay panel
Procedure: as §1, §2

FLT3(D835H) = target: T34, FLT3(D835H) (Homo sapiens, UniProt P36888, D835H); settings: read-out: control percentage (% control)
T34 construct: purchased DiscoverX scanMAX kinase assay panel
Procedure: as §1, §2

MARK3 = target: T35, MARK3 (Homo sapiens, UniProt P27448); settings: read-out: control percentage (% control)
T35 construct: purchased DiscoverX scanMAX kinase assay panel
T35 sequence (P27448 whole entry): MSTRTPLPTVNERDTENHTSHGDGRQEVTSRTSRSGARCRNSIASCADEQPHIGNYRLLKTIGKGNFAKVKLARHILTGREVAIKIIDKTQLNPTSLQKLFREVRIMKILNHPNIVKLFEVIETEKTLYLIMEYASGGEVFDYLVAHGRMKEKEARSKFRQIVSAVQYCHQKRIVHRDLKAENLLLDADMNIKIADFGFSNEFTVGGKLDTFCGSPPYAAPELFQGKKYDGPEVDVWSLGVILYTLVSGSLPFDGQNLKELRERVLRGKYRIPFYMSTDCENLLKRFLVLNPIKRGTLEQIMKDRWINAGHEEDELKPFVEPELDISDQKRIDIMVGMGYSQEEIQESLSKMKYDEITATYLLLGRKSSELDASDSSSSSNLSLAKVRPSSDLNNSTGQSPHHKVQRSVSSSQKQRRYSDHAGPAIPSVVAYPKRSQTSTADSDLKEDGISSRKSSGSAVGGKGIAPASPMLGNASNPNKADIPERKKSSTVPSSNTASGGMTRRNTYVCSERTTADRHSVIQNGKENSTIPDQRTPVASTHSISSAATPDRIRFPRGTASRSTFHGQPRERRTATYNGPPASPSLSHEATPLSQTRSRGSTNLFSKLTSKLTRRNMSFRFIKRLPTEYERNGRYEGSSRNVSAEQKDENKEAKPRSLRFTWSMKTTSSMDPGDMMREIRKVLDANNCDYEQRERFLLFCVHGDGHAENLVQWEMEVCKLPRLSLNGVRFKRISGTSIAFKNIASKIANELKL
Procedure: as §1, §2

T1 sequence (Q56UN5 whole entry): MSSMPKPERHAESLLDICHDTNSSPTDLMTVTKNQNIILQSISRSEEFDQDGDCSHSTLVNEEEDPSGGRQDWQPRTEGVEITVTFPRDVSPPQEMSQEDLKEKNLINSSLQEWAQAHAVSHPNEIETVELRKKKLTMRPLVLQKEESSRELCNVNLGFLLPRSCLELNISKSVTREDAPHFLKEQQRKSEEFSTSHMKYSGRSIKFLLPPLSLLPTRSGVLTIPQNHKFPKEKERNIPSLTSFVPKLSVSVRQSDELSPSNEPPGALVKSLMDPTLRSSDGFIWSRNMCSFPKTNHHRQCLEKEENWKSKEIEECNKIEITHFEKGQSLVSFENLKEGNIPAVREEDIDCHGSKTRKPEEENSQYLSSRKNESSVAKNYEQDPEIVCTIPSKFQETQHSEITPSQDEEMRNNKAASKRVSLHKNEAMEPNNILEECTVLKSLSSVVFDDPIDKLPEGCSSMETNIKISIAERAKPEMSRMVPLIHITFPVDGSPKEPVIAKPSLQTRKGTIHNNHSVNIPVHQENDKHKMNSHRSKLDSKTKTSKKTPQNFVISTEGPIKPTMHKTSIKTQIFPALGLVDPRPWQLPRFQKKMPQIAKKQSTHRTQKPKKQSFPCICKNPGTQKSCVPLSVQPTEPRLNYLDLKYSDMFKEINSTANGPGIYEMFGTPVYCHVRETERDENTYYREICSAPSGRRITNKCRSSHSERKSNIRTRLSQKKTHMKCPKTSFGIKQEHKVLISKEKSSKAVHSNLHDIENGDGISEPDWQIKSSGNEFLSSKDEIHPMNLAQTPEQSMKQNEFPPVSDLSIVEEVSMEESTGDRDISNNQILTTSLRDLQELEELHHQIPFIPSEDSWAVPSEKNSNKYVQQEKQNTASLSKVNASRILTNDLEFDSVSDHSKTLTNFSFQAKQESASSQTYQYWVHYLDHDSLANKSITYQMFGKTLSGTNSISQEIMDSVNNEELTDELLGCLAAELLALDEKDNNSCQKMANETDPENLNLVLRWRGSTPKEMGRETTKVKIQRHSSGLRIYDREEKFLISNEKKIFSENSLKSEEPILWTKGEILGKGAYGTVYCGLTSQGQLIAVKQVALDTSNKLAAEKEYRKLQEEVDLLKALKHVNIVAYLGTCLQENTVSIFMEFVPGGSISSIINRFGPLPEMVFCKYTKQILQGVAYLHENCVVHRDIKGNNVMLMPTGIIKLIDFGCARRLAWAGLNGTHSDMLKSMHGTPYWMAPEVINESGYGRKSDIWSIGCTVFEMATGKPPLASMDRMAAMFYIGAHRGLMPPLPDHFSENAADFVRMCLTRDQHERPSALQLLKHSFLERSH

CN1CCN(c2ccc(Nc3nc(N4OCC[C@H]4c4ccccc4)c4cc[nH]c4n3)cc2)CC1 [Example 74, (S)-N-(4-(4-methylpiperazin-1-yl)phenyl)-4-(3-phenylisoxazolidin-2-yl)-7H-pyrrolo[2,3-d]pyrimidin-2-amine]
remaining binding at 1 µM (YSK4): 8.6%
remaining binding at 1 µM (MAP3K2): 14%
remaining binding at 1 µM (TNIK): 27%
remaining binding at 1 µM (ROCK1): 11%
remaining binding at 1 µM (CDKL2): 8.2%
remaining binding at 1 µM (RIOK1): 5.5%
remaining binding at 1 µM (MLK1): 24%
remaining binding at 1 µM (SLK): 0.25%
remaining binding at 1 µM (JNK1): 2.7%
remaining binding at 1 µM (CIT): 0.3%
remaining binding at 1 µM [1]: 24%
remaining binding at 1 µM (SRPK3): 13%
remaining binding at 1 µM (LRRK2): 28%
remaining binding at 1 µM (CDK4): 10%
remaining binding at 1 µM (PIP5K2B): 18%
remaining binding at 1 µM (FLT3(D835V)): 1.7%
remaining binding at 1 µM (EGFR(T790M)): 3.7%
remaining binding at 1 µM (MERTK): 29%
remaining binding at 1 µM [2]: 1.2%
remaining binding at 1 µM [3]: 29%
remaining binding at 1 µM (VRK2): 33%
remaining binding at 1 µM (AXL): 3.2%
remaining binding at 1 µM (CDK7): 21%
remaining binding at 1 µM (HPK1): 0.85%
control percentage (% control) (FLT3(ITD, F691L)): 0%
remaining binding at 1 µM (MET): 4.5%
remaining binding at 1 µM (FLT3): 3.9%
remaining binding at 1 µM [4]: 18%
remaining binding at 1 µM (DMPK): 0.65%
remaining binding at 1 µM (LTK): 27%
remaining binding at 1 µM (PIP5K2C): 26%
remaining binding at 1 µM (MARK4): 18%
remaining binding at 1 µM (ROCK2): 8%
remaining binding at 1 µM (FLT3(D835Y)): 0.15%
remaining binding at 1 µM (FLT3(D835H)): 21%
remaining binding at 1 µM (MARK3): 5.3%
